# Reference: PubChem BioAssay (NCI)
#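 Values below derive from 48-hour exposures of cells grown in 96-well plates, with endpoints linearly interpolated between the two concentrations bracketing the appropriate inhibition level. The concentration for full growth arrest is given as TGI.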
# Experiments:
# Experiment in all cases: NCI tumour cell line growth inhibition, 48 h
# HCC-2998 colon = test system: HCC-2998 colon
# KM12 colon = test system: KM12 colon
# M14 melanoma = test system: M14 melanoma
# MCF7 breast = test system: MCF7 breast
# MDA-MB-435 = test system: MDA-MB-435
# OVCAR-4 ovarian = test system: OVCAR-4 ovarian
# OVCAR-5 ovarian = test system: OVCAR-5 ovarian
# RXF 393 renal = test system: RXF 393 renal
# SK-MEL-5 melanoma = test system: SK-MEL-5 melanoma
# SNB-75 CNS = test system: SNB-75 CNS
Structure (SMILES),TGI (HCC-2998 colon),TGI (KM12 colon),TGI (M14 melanoma),TGI (MCF7 breast),TGI (MDA-MB-435),TGI (OVCAR-4 ovarian),TGI (OVCAR-5 ovarian),TGI (RXF 393 renal),TGI (SK-MEL-5 melanoma),TGI (SNB-75 CNS)
N#Cc1cc2c(n(C3OC(CO)C(O)C(O)C3O)c1=S)CCC2 (stereo not given),> 100 µM,> 100 µM,> 100 µM,> 100 µM,> 100 µM,> 100 µM,> 100 µM,> 100 µM,> 100 µM,> 100 µM
C/C(=C\C(=O)O)C(=O)N(C)c1ccccc1I,> 100 µM,> 100 µM,> 100 µM,> 100 µM,> 100 µM,> 100 µM,> 100 µM,> 100 µM,> 100 µM,> 100 µM
Cc1cc(C)nc(NS(=O)(=O)c2ccc(NC(=O)c3ccc4nc5ccccc5c(Nc5ccc(S(=O)(=O)N=C(N)N)cc5)c4c3)cc2)n1,> 100 µM,> 100 µM,> 100 µM,> 100 µM,> 100 µM,> 100 µM,> 100 µM,> 100 µM,> 100 µM,> 100 µM
COC(=O)[C@]1(c2cc3ccccc3[nH]2)CC2CNC1C1OC(C)(C)OC21 (stereo not given in full),> 100 µM,> 100 µM,> 100 µM,> 100 µM,> 100 µM,> 100 µM,> 100 µM,> 100 µM,> 100 µM,> 100 µM
COC(=O)c1sc2c(Cl)c(Cl)sc2c1Cl,> 100 µM,> 100 µM,> 100 µM,> 100 µM,> 100 µM,> 100 µM,> 100 µM,> 100 µM,> 100 µM,> 100 µM
Cc1cc(S(=O)(=O)NC2=NCc3c(F)cccc3N2)c(S)cc1Cl,> 100 µM,> 100 µM,> 100 µM,> 100 µM,> 100 µM,> 100 µM,> 100 µM,> 100 µM,> 100 µM,> 100 µM
FC(F)(Sc1ncccn1)c1nc2ccccc2o1,> 100 µM,> 100 µM,> 100 µM,> 100 µM,> 100 µM,> 100 µM,> 100 µM,> 100 µM,> 100 µM,81.2 µM
CSC1=C(C)C(/C=N/Nc2ccc([N+](=O)[O-])cc2)=C(C)N(c2ccccc2)S1(=O)=O,> 100 µM,> 100 µM,> 100 µM,> 100 µM,> 100 µM,> 100 µM,> 100 µM,> 100 µM,> 100 µM,> 100 µM
CCN(CCCl)c1cc(CN(C)C)cc(NC(=O)c2ccc(C(=O)Nc3cccc(N(CCCl)NN)c3)cc2)c1,0.298 µM,0.329 µM,0.294 µM,0.171 µM,0.0389 µM,0.364 µM,0.989 µM,0.142 µM,0.174 µM,0.775 µM
CC(C)(C)OC(=O)N1CCC2(CC1)C(=O)NCN2c1ccccc1,> 100 µM,> 100 µM,> 100 µM,> 100 µM,> 100 µM,> 100 µM,> 100 µM,> 100 µM,> 100 µM,> 100 µM
Cc1c(C)c2c(c(N)c1C#N)C(=O)N(NC(=S)Nc1ccccc1)C2=O,> 100 µM,> 100 µM,> 100 µM,> 100 µM,> 100 µM,> 100 µM,> 100 µM,> 100 µM,> 100 µM,> 100 µM
CC(C)(C)[C@H]1NC(=O)CN1C(=O)OCc1ccccc1,> 100 µM,> 100 µM,> 100 µM,> 100 µM,> 100 µM,> 100 µM,> 100 µM,> 100 µM,> 100 µM,> 100 µM
CCOc1ccc(Nc2nc(N)nc(N)c2N=O)cc1,> 100 µM,> 100 µM,> 100 µM,> 100 µM,> 100 µM,> 100 µM,> 100 µM,> 100 µM,> 100 µM,91.7 µM
Nc1c(-c2ccccc2)c2ccc([N+](=O)[O-])cc2c(=O)n1-c1cccc(C(=O)O)c1,> 100 µM,> 100 µM,> 100 µM,> 100 µM,> 100 µM,> 100 µM,> 100 µM,> 100 µM,> 100 µM,> 100 µM
